Reference: patent publication US20100298205A1, “METHODS AND COMPOSITIONS FOR THE TREATMENT OF CONDITIONS RELATED TO GASTRIC ACID SECRETION” (priority 2004, published 2010)
Where two headings read alike, the source gives them in different places.

Experiments:
[1] = Pharmacokinetics in dogs after oral or intravenous administration; assay type: in vivo, dogs (beagle); set-up: key to Dog T1/2 Prodrug: NC: plasma concentration of prodrug was too low to calculate half-life, or undetected; conditions: for Dog T1/2 Prodrug / Dog T1/2 PPI: oral, parenthesis = standard deviation; for Dog T1/2 Prodrug: systemic half-life of intact prodrug; for Dog T1/2 PPI: systemic half-life of the proton pump inhibitor; for t1/2: systemic half-life of PPI in dogs after oral administration
Protocol: (§1) Blood concentrations of the compounds omeprazole, lansoprazole, pantoprazole, rabeprazole, and test compounds were quantified using an achiral liquid chromatography tandem mass spectrometry method (LC-MS/MS). Systemic pharmacokinetic parameters were determined for omeprazole or lansoprazole using non-compartmental analysis in Watson® version 6.3, available from InnaPhase Corporation, Philadelphia, Pa.

Caco-2 cells = test: Caco-2 membrane permeability / bi-directional transport (Papp); assay type: in vitro ADME, human; conditions: apical to basolateral, 10 μM, 37° C.
Protocol: (§2) Determination of membrane permeability in all examples described herein was accomplished by the following procedure. This procedure is also used to determine whether a given prodrug falls within the scope of those claims given herein which relate to membrane permeability.
(§3) DMEM was equilibrated as a transport buffer in 37° C. water bath an hour before experiment. The cells were then equilibrated in transport buffer for 1 hr at 37° C.
(§4) Dosing solution (10 μM) was prepared by adding a 20 μL aliquot of a 10 mM stock solution of the prodrug to 20 mL of transport buffer.
(§5) Transport buffer was removed from both apical and basolateral compartment of filters. […] […] Fresh transport buffer (400 μL) was added back to the basolateral compartment, and the fluid was thoroughly mixed.
(§6) Lucifer yellow (LY) was used as a paracellular permeability reference standard to determine integrity of cell layers used in the experiments. LY transport in the apical to basolateral direction was carried out in the same manner as described above. Fluorescence level in basolateral fluid sampled at 5, 20, and 60 min post dose was determined using Fluostar Galaxy (BMG Labtechnologies, Durham, N.C.) at excitation/emission wavelengths of 485/520 nm. A standard curve covering the range from 0.002 to 0.5 mg/mL is constructed to quantify the amount of LY in the transport sample to calculate permeability coefficient (Papp).

[2] = Pharmacokinetics in rats after oral or intravenous administration; assay type: in vivo, rats (Sprague-Dawley); set-up: key to Rat T1/2 Prodrug: NC: plasma concentration of prodrug was too low to calculate half-life, or undetected; Rat T1/2 PPI: unit not given here; conditions: oral, parenthesis = standard deviation; for Rat T1/2 Prodrug: systemic half-life of intact prodrug; for Rat T1/2 PPI: systemic half-life of the proton pump inhibitor
Protocol: as §1

MDR1 = test: MDR1-MDCK bi-directional transport (Papp); assay type: in vitro ADME; conditions: dog, MDR1-MDCK cells
Text: as §2
• Test System: Cultured Caco-2 cells and MDR1-MDCK cells • Seeding Density: 2×10^5 cells/cm^2 in Costar 12 well Transwell™plates • Culture Age: 17-21 days post seeding for Caco-2 cells, 2-3 days post seeding for MDR1-MDCK cells • Source: American Type Culture Collection, Manassas, Va. […]
The apparent permeability coefficient (Papp, cm/sec), otherwise known herein as the membrane permeability, is determined from the following relationship: […]
The transport rate J, is calculated as the slope of the linear regression fit for the transport amount over time data using Microsoft Excel® 97 SR-2 (Microsoft Corp. Redmond, Wash.),
Lucifer yellow (LY) was used as a paracellular permeability reference standard to determine integrity of cell layers used in the experiments. […] Fluorescence level in basolateral fluid sampled at 5, 20, and 60 min post dose was determined using Fluostar Galaxy (BMG Labtechnologies, Durham, N.C.) at excitation/emission wavelengths of 485/520 nm. […]

[3] = Caco-2 membrane permeability / bi-directional transport (Papp); assay type: in vitro ADME, human; conditions: human, Caco-2 cells
Protocol: as §2, §3, §4, §5, §6

[4] = somewhat buffer dependent, Kromer et al., Ekpe et al., cited from earlier work
[5] = read-out: Ratio Papp BA/Papp AB

SMILES | Dog T1/2 Prodrug [1] | Dog T1/2 PPI [1] | t1/2 [1] | Permeability (Caco-2 cells) | Rat T1/2 Prodrug [2] | Rat T1/2 PPI [2] | other results
Cc1c(OCC(F)(F)F)ccnc1C[S+]([O-])c1nc2ccccc2n1S(=O)(=O)c1cccc(C(=O)O)c1 (stereo not drawn) [Compound 7] | 12.4 min | 53.6 min | 53.4 min | 1.6e-07 cm/s | NC | 1.93 (1.41) | –
COc1ccc(S(=O)(=O)n2c([S+]([O-])Cc3nccc(OCC(F)(F)F)c3C)nc3ccccc32)cc1C(=O)O (stereo not drawn) [Compound 8] | NC | 64.8 min | 66 min | 2.3e-07 cm/s | NC | 1.80 (1.20) | –
Cc1c(OCC(F)(F)F)ccnc1C[S+]([O-])c1nc2ccccc2n1S(=O)(=O)c1ccc(CC(=O)O)cc1 (stereo not drawn) [Compound 9] | NC | 53.6 min | 53.4 min | 3.4e-07 cm/s | NC | 0.341 (0.151) | –
Cc1c(OCC(F)(F)F)ccnc1C[S+]([O-])c1nc2ccccc2n1S(=O)(=O)c1ccc(OCC(=O)O)cc1 (stereo not drawn) [Compound 10] | NC | 0.989 (0.307) | – | – | – | – | –
Cc1c(OCC(F)(F)F)ccnc1C[S+]([O-])c1nc2ccccc2n1S(=O)(=O)c1ccc(OCC(C)(C)C(=O)O)cc1 (stereo not drawn) [Compound 11] | NC | 0.873 (0.288) | – | – | NC | 0.933 (1.009) | –
Cc1c(OCC(F)(F)F)ccnc1C[S+]([O-])c1nc2ccccc2n1S(=O)(=O)c1ccc(CC(=O)O)c(CC(=O)O)c1 (stereo not drawn) [Compound 12] | NC | 55.9 min | – | – | – | – | –
Cc1ccc(C(=O)O)cc1S(=O)(=O)n1c([S+]([O-])Cc2nccc(OCC(F)(F)F)c2C)nc2ccccc21 (stereo not drawn) [Compound 13] | 7.32 min | 106 min | – | – | NC | 2.35 (1.22) | –
COc1ccc(C(=O)O)cc1S(=O)(=O)n1c([S+]([O-])Cc2nccc(OCC(F)(F)F)c2C)nc2ccccc21 (stereo not drawn) [Compound 14] | 7.08 min | 83.4 min | – | – | – | 0.536 (0.217) | –
Cc1c(OCC(F)(F)F)ccnc1C[S+]([O-])c1nc2ccccc2n1S(=O)(=O)c1ccc(CC(=O)O)cc1C(C)C (stereo not drawn) [Compound 15] | NC | 55.4 min | – | – | – | – | –
COc1ccc2[nH]c([S+]([O-])Cc3ncc(C)c(OC)c3C)nc2c1 (stereo not drawn) [Omeprazole] | – | – | – | – | – | – | Papp B→A at 60 min, 10 μM (MDR1; B to A, 10 μM): 17.1 ×10⁻⁶ cm/s; efflux ratio at 60 min, 10 µM (MDR1; [5]): 1.52; Papp A→B at 60 min, 10 μM ([3]; A to B, 10 μM): 12.6 ×10⁻⁶ cm/s; Papp B→A at 60 min, 10 μM ([3]; B to A, 10 μM): 16.3 ×10⁻⁶ cm/s; efflux ratio at 60 min, 10 µM [3, 5]: 1.29; typical half-life (stability) ([4]; pH 5): about 1 hour; typical half-life (stability) ([4]; pH 7): about 40 hours
